Measurements reported in ChEMBL document CHEMBL1130203, “Novel fluoroquinolone antibacterial agents containing oxime-substituted (aminomethyl)pyrrolidines: synthesis and antibacterial activity of 7-(4-(aminomethyl)-3-(methoxyimino)pyrrolidin-1-yl)-1-cyclopropyl-6- fluoro-4-oxo-1,4-dihydro[1,8]naphthyridine-3-carboxylic acid (LB20304)” (J Med Chem, 1997).
≈ marks a conversion by molar mass, not a printed value.

Test system: Acinetobacter calcoaceticus
Test: Minimum inhibitory concentration (MIC) against Acinetobacter calcoaceticus 15473
Assay type: functional
Conditions: Acinetobacter calcoaceticus; read-out: MIC

Structure (SMILES) | MIC
CO/N=C1\CN(c2nc3c(cc2F)c(=O)c(C(=O)O)cn3C2CC2)CC1CN(C)C (stereo unspecified) | 0.5 µg/mL (≈ 1.2 µM)
CC(C)(C)O/N=C1\CN(c2nc3c(cc2F)c(=O)c(C(=O)O)cn3C2CC2)CC1CN (stereo unspecified) | 0.031 µg/mL (≈ 0.0718 µM)
CCn1cc(C(=O)O)c(=O)c2cc(F)c(N3C/C(=N\OC)C(CN)C3)c(F)c21 (stereo unspecified) | 1 µg/mL (≈ 2.54 µM)
CO/N=C1\CN(c2nc3c(cc2F)c(=O)c(C(=O)O)cn3C2CC2)CC1CN (stereo in doubt) [GEMIFLOXACIN] | 0.063 µg/mL (≈ 0.162 µM)

Test system: Bacillus subtilis
Test: Minimum inhibitory concentration (MIC) against Bacillus subtilis ATCC 6633
Assay type: functional
Conditions: not given

Structure (SMILES) | MIC
CO/N=C1\CN(c2nc3c(cc2F)c(=O)c(C(=O)O)cn3C2CC2)CC1CN(C)C (stereo unspecified) | 0.016 µg/mL (≈ 0.0383 µM)
CC(C)(C)O/N=C1\CN(c2nc3c(cc2F)c(=O)c(C(=O)O)cn3C2CC2)CC1CN (stereo unspecified) | < 0.008 µg/mL
CCn1cc(C(=O)O)c(=O)c2cc(F)c(N3C/C(=N\OC)C(CN)C3)c(F)c21 (stereo unspecified) | 0.031 µg/mL (≈ 0.0786 µM)
CO/N=C1\CN(c2nc3c(cc2F)c(=O)c(C(=O)O)cn3C2CC2)CC1CN (stereo in doubt) [GEMIFLOXACIN] | < 0.008 µg/mL

Test system: Escherichia coli
Test: Minimum inhibitory concentration (MIC) against Escherichia coli 10536
Assay type: functional
Conditions: not given

Structure (SMILES) | MIC
CO/N=C1\CN(c2nc3c(cc2F)c(=O)c(C(=O)O)cn3C2CC2)CC1CN(C)C (stereo unspecified) | 0.13 µg/mL (≈ 0.311 µM)
CC(C)(C)O/N=C1\CN(c2nc3c(cc2F)c(=O)c(C(=O)O)cn3C2CC2)CC1CN (stereo unspecified) | ≤ 0.008 µg/mL
CCn1cc(C(=O)O)c(=O)c2cc(F)c(N3C/C(=N\OC)C(CN)C3)c(F)c21 (stereo unspecified) | 0.063 µg/mL (≈ 0.16 µM)
CO/N=C1\CN(c2nc3c(cc2F)c(=O)c(C(=O)O)cn3C2CC2)CC1CN (stereo in doubt) [GEMIFLOXACIN] | < 0.008 µg/mL

Test system: Escherichia coli
Test: Minimum inhibitory concentration (MIC) against Escherichia coli 3190Y
Assay type: functional
Conditions: not given

Structure (SMILES) | MIC
CO/N=C1\CN(c2nc3c(cc2F)c(=O)c(C(=O)O)cn3C2CC2)CC1CN(C)C (stereo unspecified) | 0.063 µg/mL (≈ 0.151 µM)
CC(C)(C)O/N=C1\CN(c2nc3c(cc2F)c(=O)c(C(=O)O)cn3C2CC2)CC1CN (stereo unspecified) | 0.016 µg/mL (≈ 0.0371 µM)
CCn1cc(C(=O)O)c(=O)c2cc(F)c(N3C/C(=N\OC)C(CN)C3)c(F)c21 (stereo unspecified) | 0.063 µg/mL (≈ 0.16 µM)
CO/N=C1\CN(c2nc3c(cc2F)c(=O)c(C(=O)O)cn3C2CC2)CC1CN (stereo in doubt) [GEMIFLOXACIN] | < 0.008 µg/mL

Test system: Escherichia coli
Test: Minimum inhibitory concentration (MIC) against Escherichia coli TEM9 2639E
Assay type: functional
Conditions: Escherichia coli; read-out: MIC

Structure (SMILES) | MIC
CO/N=C1\CN(c2nc3c(cc2F)c(=O)c(C(=O)O)cn3C2CC2)CC1CN(C)C (stereo unspecified) | 1 µg/mL (≈ 2.4 µM)
CC(C)(C)O/N=C1\CN(c2nc3c(cc2F)c(=O)c(C(=O)O)cn3C2CC2)CC1CN (stereo unspecified) | 0.063 µg/mL (≈ 0.146 µM)
CCn1cc(C(=O)O)c(=O)c2cc(F)c(N3C/C(=N\OC)C(CN)C3)c(F)c21 (stereo unspecified) | 0.5 µg/mL (≈ 1.27 µM)
CO/N=C1\CN(c2nc3c(cc2F)c(=O)c(C(=O)O)cn3C2CC2)CC1CN (stereo in doubt) [GEMIFLOXACIN] | 0.031 µg/mL (≈ 0.0796 µM)

Test system: Klebsiella aerogenes
Test: Minimum inhibitory concentration (MIC) against Klebsiella aerogenes 1082E
Assay type: functional
Conditions: Klebsiella aerogenes; read-out: MIC

Structure (SMILES) | MIC
CO/N=C1\CN(c2nc3c(cc2F)c(=O)c(C(=O)O)cn3C2CC2)CC1CN(C)C (stereo unspecified) | 0.016 µg/mL (≈ 0.0383 µM)
CC(C)(C)O/N=C1\CN(c2nc3c(cc2F)c(=O)c(C(=O)O)cn3C2CC2)CC1CN (stereo unspecified) | 0.25 µg/mL (≈ 0.579 µM)
CCn1cc(C(=O)O)c(=O)c2cc(F)c(N3C/C(=N\OC)C(CN)C3)c(F)c21 (stereo unspecified) | 0.5 µg/mL (≈ 1.27 µM)
CO/N=C1\CN(c2nc3c(cc2F)c(=O)c(C(=O)O)cn3C2CC2)CC1CN (stereo in doubt) [GEMIFLOXACIN] | 0.031 µg/mL (≈ 0.0796 µM)

Test system: Pseudomonas aeruginosa
Test: Minimum inhibitory concentration (MIC) against Pseudomonas aeruginosa 1912E
Assay type: functional
Conditions: Pseudomonas aeruginosa; read-out: MIC

Structure (SMILES) | MIC
CO/N=C1\CN(c2nc3c(cc2F)c(=O)c(C(=O)O)cn3C2CC2)CC1CN(C)C (stereo unspecified) | 16 µg/mL (≈ 38.3 µM)
CC(C)(C)O/N=C1\CN(c2nc3c(cc2F)c(=O)c(C(=O)O)cn3C2CC2)CC1CN (stereo unspecified) | 2 µg/mL (≈ 4.64 µM)
CCn1cc(C(=O)O)c(=O)c2cc(F)c(N3C/C(=N\OC)C(CN)C3)c(F)c21 (stereo unspecified) | 2 µg/mL (≈ 5.07 µM)
CO/N=C1\CN(c2nc3c(cc2F)c(=O)c(C(=O)O)cn3C2CC2)CC1CN (stereo in doubt) [GEMIFLOXACIN] | 0.25 µg/mL (≈ 0.642 µM)

Test system: Staphylococcus aureus
Test: Minimum inhibitory concentration (MIC) against Staphylococcus aureus 241
Assay type: functional
Conditions: Staphylococcus aureus; read-out: MIC

Structure (SMILES) | MIC
CO/N=C1\CN(c2nc3c(cc2F)c(=O)c(C(=O)O)cn3C2CC2)CC1CN(C)C (stereo unspecified) | 32 µg/mL (≈ 76.7 µM)
CC(C)(C)O/N=C1\CN(c2nc3c(cc2F)c(=O)c(C(=O)O)cn3C2CC2)CC1CN (stereo unspecified) | 1 µg/mL (≈ 2.32 µM)
CCn1cc(C(=O)O)c(=O)c2cc(F)c(N3C/C(=N\OC)C(CN)C3)c(F)c21 (stereo unspecified) | 4 µg/mL (≈ 10.1 µM)
CO/N=C1\CN(c2nc3c(cc2F)c(=O)c(C(=O)O)cn3C2CC2)CC1CN (stereo in doubt) [GEMIFLOXACIN] | 4 µg/mL (≈ 10.3 µM)

Test system: Staphylococcus aureus
Test: Minimum inhibitory concentration (MIC) against Staphylococcus aureus 6538p.
Assay type: functional
Conditions: not given

Structure (SMILES) | MIC
CO/N=C1\CN(c2nc3c(cc2F)c(=O)c(C(=O)O)cn3C2CC2)CC1CN(C)C (stereo unspecified) | 0.13 µg/mL (≈ 0.311 µM)
CC(C)(C)O/N=C1\CN(c2nc3c(cc2F)c(=O)c(C(=O)O)cn3C2CC2)CC1CN (stereo unspecified) | 0.008 µg/mL (≈ 0.0185 µM)
CCn1cc(C(=O)O)c(=O)c2cc(F)c(N3C/C(=N\OC)C(CN)C3)c(F)c21 (stereo unspecified) | 0.031 µg/mL (≈ 0.0786 µM)
CO/N=C1\CN(c2nc3c(cc2F)c(=O)c(C(=O)O)cn3C2CC2)CC1CN (stereo in doubt) [GEMIFLOXACIN] | < 0.008 µg/mL

Test system: Staphylococcus epidermidis
Test: Minimum inhibitory concentration (MIC) against Staphylococcus epidermidis 887E
Assay type: functional
Conditions: not given

Structure (SMILES) | MIC
CO/N=C1\CN(c2nc3c(cc2F)c(=O)c(C(=O)O)cn3C2CC2)CC1CN(C)C (stereo unspecified) | 0.13 µg/mL (≈ 0.311 µM)
CC(C)(C)O/N=C1\CN(c2nc3c(cc2F)c(=O)c(C(=O)O)cn3C2CC2)CC1CN (stereo unspecified) | < 0.008 µg/mL
CCn1cc(C(=O)O)c(=O)c2cc(F)c(N3C/C(=N\OC)C(CN)C3)c(F)c21 (stereo unspecified) | 0.063 µg/mL (≈ 0.16 µM)
CO/N=C1\CN(c2nc3c(cc2F)c(=O)c(C(=O)O)cn3C2CC2)CC1CN (stereo in doubt) [GEMIFLOXACIN] | < 0.008 µg/mL

Test system: Staphylococcus epidermidis
Test: Minimum inhibitory concentration (MIC) against Staphylococcus epidermidis 178
Assay type: functional
Conditions: Staphylococcus epidermidis; read-out: MIC

Structure (SMILES) | MIC
CO/N=C1\CN(c2nc3c(cc2F)c(=O)c(C(=O)O)cn3C2CC2)CC1CN(C)C (stereo unspecified) | 16 µg/mL (≈ 38.3 µM)
CC(C)(C)O/N=C1\CN(c2nc3c(cc2F)c(=O)c(C(=O)O)cn3C2CC2)CC1CN (stereo unspecified) | 1 µg/mL (≈ 2.32 µM)
CCn1cc(C(=O)O)c(=O)c2cc(F)c(N3C/C(=N\OC)C(CN)C3)c(F)c21 (stereo unspecified) | 4 µg/mL (≈ 10.1 µM)
CO/N=C1\CN(c2nc3c(cc2F)c(=O)c(C(=O)O)cn3C2CC2)CC1CN (stereo in doubt) [GEMIFLOXACIN] | 4 µg/mL (≈ 10.3 µM)

Test system: Staphylococcus aureus
Test: Minimum inhibitory concentration (MIC) against Staphylococcus aureus giorgio
Assay type: functional
Conditions: not given

Structure (SMILES) | MIC
CO/N=C1\CN(c2nc3c(cc2F)c(=O)c(C(=O)O)cn3C2CC2)CC1CN(C)C (stereo unspecified) | 0.13 µg/mL (≈ 0.311 µM)
CC(C)(C)O/N=C1\CN(c2nc3c(cc2F)c(=O)c(C(=O)O)cn3C2CC2)CC1CN (stereo unspecified) | < 0.008 µg/mL
CCn1cc(C(=O)O)c(=O)c2cc(F)c(N3C/C(=N\OC)C(CN)C3)c(F)c21 (stereo unspecified) | 0.063 µg/mL (≈ 0.16 µM)
CO/N=C1\CN(c2nc3c(cc2F)c(=O)c(C(=O)O)cn3C2CC2)CC1CN (stereo in doubt) [GEMIFLOXACIN] | < 0.008 µg/mL

Test system: Enterococcus faecalis
Test: Minimum inhibitory concentration (MIC) against Streptococcus faecalis 29212
Assay type: functional
Conditions: Enterococcus faecalis; read-out: MIC

Structure (SMILES) | MIC
CO/N=C1\CN(c2nc3c(cc2F)c(=O)c(C(=O)O)cn3C2CC2)CC1CN(C)C (stereo unspecified) | 1 µg/mL (≈ 2.4 µM)
CC(C)(C)O/N=C1\CN(c2nc3c(cc2F)c(=O)c(C(=O)O)cn3C2CC2)CC1CN (stereo unspecified) | 0.063 µg/mL (≈ 0.146 µM)
CCn1cc(C(=O)O)c(=O)c2cc(F)c(N3C/C(=N\OC)C(CN)C3)c(F)c21 (stereo unspecified) | 0.25 µg/mL (≈ 0.634 µM)
CO/N=C1\CN(c2nc3c(cc2F)c(=O)c(C(=O)O)cn3C2CC2)CC1CN (stereo in doubt) [GEMIFLOXACIN] | 0.063 µg/mL (≈ 0.162 µM)

Test system: Enterobacter cloacae
Test: Minimum inhibitory concentration (MIC) against Enterobacter cloacae P99
Assay type: functional
Conditions: not given

Structure (SMILES) | MIC
CO/N=C1\CN(c2nc3c(cc2F)c(=O)c(C(=O)O)cn3C2CC2)CC1CN(C)C (stereo unspecified) | 0.13 µg/mL (≈ 0.311 µM)
CC(C)(C)O/N=C1\CN(c2nc3c(cc2F)c(=O)c(C(=O)O)cn3C2CC2)CC1CN (stereo unspecified) | ≤ 0.008 µg/mL
CCn1cc(C(=O)O)c(=O)c2cc(F)c(N3C/C(=N\OC)C(CN)C3)c(F)c21 (stereo unspecified) | 0.13 µg/mL (≈ 0.33 µM)
CO/N=C1\CN(c2nc3c(cc2F)c(=O)c(C(=O)O)cn3C2CC2)CC1CN (stereo in doubt) [GEMIFLOXACIN] | < 0.008 µg/mL
